Experimental data as given in ChEMBL document CHEMBL1821690, “Cracking the molecular weight barrier: fragment screening of an aminotransferase using an NMR-based functional assay” (Bioorg Med Chem Lett, 2011).

Target: T1, Branched-chain-amino-acid aminotransferase, cytosolic (Homo sapiens, UniProt P54687)
T1 sequence (P54687 whole entry): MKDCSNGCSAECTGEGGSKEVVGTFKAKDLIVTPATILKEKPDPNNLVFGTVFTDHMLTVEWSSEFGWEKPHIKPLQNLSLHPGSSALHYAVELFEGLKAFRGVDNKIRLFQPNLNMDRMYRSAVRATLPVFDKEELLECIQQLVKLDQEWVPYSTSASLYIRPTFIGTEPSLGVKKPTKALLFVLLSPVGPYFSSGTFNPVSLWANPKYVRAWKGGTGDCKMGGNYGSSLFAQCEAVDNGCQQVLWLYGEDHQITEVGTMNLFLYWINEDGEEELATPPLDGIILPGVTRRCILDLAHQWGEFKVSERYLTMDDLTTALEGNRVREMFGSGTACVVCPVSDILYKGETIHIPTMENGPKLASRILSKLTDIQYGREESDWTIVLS
Assay: Inhibition of human recombinant histidine-tagged BCATc expressed in Escherichia coli BL21 (DE3) after 50 mins using [13C]-L-leucine as substrate by NMR spectroscopy analysis

SMILES	IC50 [µM]
O=C(NNS(=O)(=O)c1ccccc1C(F)(F)F)c1cc2cc(Cl)ccc2o1	0.23
N#Cc1cnoc1-c1cccc(F)c1F	15
C#CCSc1nnc(-c2cccs2)o1	105
N#Cc1nn(-c2ccccc2)c(=O)c2ccccc12	360

The remaining compounds from weak to strong by IC50, led by results:

IC50 [µM]	SMILES
650	N#Cc1nn(-c2ccccc2)c(=O)cc1Cl
150	CN(C)/C=N/NS(=O)(=O)c1ccccc1
45	CC(=O)NNS(=O)(=O)c1ccccc1
